Data published in patent US20060046972A1, “Cytotoxic nucleoside analog compound 003 for treating cancer” (Parker Hughes Institute, priority 2004, published 2006).

Legend:
[1] = tested on: BT20 breast cancer cell line; assay: Intracellular metabolism of Compound 003 to ala-AZT-MP, BT20; type: in vitro ADME, human; conditions: 25 μM Compound 003
Description: Intracellular metabolism of Compound 003 was studied in CEM T-lineage lymphoma cell line, BT20 breast cancer cell line, T98 glioblastoma cell line, and Nalm-6 B-lineage leukemia cell line. CEM and Nalm6 cells were maintained in RPMI supplemented with 10% fetal bovine serum, and 1% penicillin/streptomycin. BT20 and T98 cells w.ere cultured in a medium composed of MEM, 10% fetal bovine serum, 0.1-mM of nonessential amino acids and Earles salts, and 1% penicillin/streptomycin. CEM and Nalm6 cells at a density of 10^6 cells per ml were utilized in the drug metabolism study. BT20 and T98 cells were seeded in 6-cm petri-dishes at 4 million cells and 2 million cells per plate, respectively, the day before the experiment. Either one plate of adherent cells or 10 million non-adherent cells was utilized at each time point. Cells were incubated with various concentrations of the compounds up to 24 hrs at 37° C. After incubation, cells were washed 2 times with ice-cold PBS, and extracted by addition of 0.5-1 ml of 60% methanol. Cell lysates were kept at −20° C. overnight, after which lysates were centrifuged at 15000×g for 10 minutes to remove the cell debris. One hundred microliters of these lysates were injected directly to HPLC. For half-life study, cells at the same density as in drug metabolism study were treated with 100 μM Compound 003 for 2 hrs, after which cells were washed 2 times with ice-cold PBS, and resuspended in warm media until the time they were harvested. For uptake and efflux study, cells were seeded at 2 million cells in 2 ml of media. […] With efflux experiments, cells 1×10^6/mL (the same density as in the uptake study) were incubated with 100 μM Compound 003 for 1 hr, washed 2 times with ice-cold PBS, and resuspended with culture medium without drug, and the metabolite efflux from cells to the medium was measured after 6 hr of incubation. […]

[2] = tested on: MMTV/Neu transgenic mice kept pregnant or lactating; assay: Lactation induced murine model of Her 2 positive breast cancer, MMTV/Neu transgenic mice; type: in vivo
Protocol: MMTV/Neu transgenic mice were treated with Compound 003 that was added to the daily food of the mice at an average daily dose level of 50 mg/kg/day for the duration of the experiment. Mice were screened for the tumor formation every other day. Tumor-free survival was analyzed using life table statistics as previously reported. The protective anti-cancer activity of Compound 003 was evaluated according to the rise of the survival rate and prolongation of the tumor-free survival of the experimental animals as compared with the control animals. Statistical Significance was determined using the Kaplan Meier Log-Rank test.
In the second experiment, in order to maintain the development of mammary gland and maximum expression of the MMTV-driven neu transgene, all female transgenic mice were kept either pregnant or lactating by continued housing with male FVB mice. Treatments commenced when female mice were 6-weeks of age. Vehicle-treated control mice (N=16) developed breast cancer faster than vehicle treated virgin transgenic mice with a median cancer-free survival time of 169.5 days (Mean=160.8±9.3 days). Compound 003 prolonged the median cancer-free survival from 169.5 days to 234 days (P=0.05). At 200 days, the cumulative proportion of vehicle-treated neu transgenic mice was only 38±12%, whereas at the same time 75±11% of Compound 003-treated neu transgenic mice were cancer-free (FIG. 9).

COC(=O)C(C)NP(=O)(OCC1OC(n2cc(C)c(=O)[nH]c2=O)CC1N=[N+]=[N-])Oc1ccc(OC)cc1 (stereo not drawn) [Compound 003, 3′-azidothymidine 5′-[p-methoxyphenylmethoxyalaninyl phosphate]]
time to peak intracellular metabolite concentration [1]: within an hour
median cancer-free survival ([2]; 50 mg/kg/day in food, vehicle 169.5 days, P=0.05): 234 days
proportion of mice cancer-free ([2]; 50 mg/kg/day, at 200 days, vehicle 38±12%): 75±11%
